Measurements: ChEMBL document CHEMBL4507282, “Data for DCP probe BI-1950” (2021)

Columns and labels:
[1] = target: Serine/threonine-protein kinase Nek2 (Homo sapiens) (UniProt P51955); settings: Compound concentration 1000.0 nM
[2] = target: Glycogen synthase kinase-3 beta (Homo sapiens) (UniProt P49841); settings: Compound concentration 1000.0 nM
[3] = target: 5-hydroxytryptamine receptor 2C (Homo sapiens) (UniProt P28335); settings: Compound concentration 10.0 uM
[4] = target: G protein-coupled receptor kinase 4 (Homo sapiens) (UniProt P32298); settings: Compound concentration 1000.0 nM
[5] = target: Ribosomal protein S6 kinase alpha-3 (Homo sapiens) (UniProt P51812); settings: Compound concentration 1000.0 nM
[6] = target: Kappa-type opioid receptor (Homo sapiens) (UniProt P41145); settings: Compound concentration 10.0 uM
[7] = target: Tyrosine-protein kinase SYK (Homo sapiens) (UniProt P43405); settings: Compound concentration 1000.0 nM
[8] = system: Receptor-type tyrosine-protein kinase FLT3 (Homo sapiens), P36888 [N841I]; settings: Compound concentration 1000.0 nM
[9] = target: Serine/threonine-protein kinase BRSK1 (Homo sapiens) (UniProt Q8TDC3); settings: Compound concentration 1000.0 nM
[10] = target: 5'-AMP-activated protein kinase catalytic subunit alpha-2 (Homo sapiens) (UniProt P54646); settings: Compound concentration 1000.0 nM
[11] = target: Serine/threonine-protein kinase SBK1 (Homo sapiens) (UniProt Q52WX2); settings: Compound concentration 1000.0 nM
Serine/threonine-protein kinase SBK1 (Homo sapiens), sequence (Q52WX2 whole entry): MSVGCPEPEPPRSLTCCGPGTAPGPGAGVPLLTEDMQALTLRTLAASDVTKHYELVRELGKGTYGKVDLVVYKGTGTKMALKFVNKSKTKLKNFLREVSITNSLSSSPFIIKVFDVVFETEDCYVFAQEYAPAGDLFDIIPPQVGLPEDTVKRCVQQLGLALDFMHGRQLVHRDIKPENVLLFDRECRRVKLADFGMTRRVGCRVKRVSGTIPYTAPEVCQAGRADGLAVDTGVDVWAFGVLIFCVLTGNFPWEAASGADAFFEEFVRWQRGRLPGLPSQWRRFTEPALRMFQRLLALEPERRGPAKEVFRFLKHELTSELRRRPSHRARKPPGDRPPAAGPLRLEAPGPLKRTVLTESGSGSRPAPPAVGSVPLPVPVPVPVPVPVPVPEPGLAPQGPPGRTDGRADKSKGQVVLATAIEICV

[12] = target: Ribosomal protein S6 kinase alpha-6 (Homo sapiens) (UniProt Q9UK32); settings: Compound concentration 1000.0 nM
[13] = target: Cyclin-dependent kinase 8 (Homo sapiens) (UniProt P49336); settings: Compound concentration 1000.0 nM
[14] = target: RAC-alpha serine/threonine-protein kinase (Homo sapiens) (UniProt P31749); settings: Compound concentration 1000.0 nM
[15] = target: Serine/threonine-protein kinase DCLK2 (Homo sapiens) (UniProt Q8N568); settings: Compound concentration 1000.0 nM
[16] = target: Mitogen-activated protein kinase 14 (Homo sapiens) (UniProt Q16539); settings: Compound concentration 1000.0 nM
[17] = target: Receptor-type tyrosine-protein kinase FLT3 (Homo sapiens) (UniProt P36888); settings: Compound concentration 1000.0 nM
[18] = system: Tyrosine-protein kinase ABL1 (Homo sapiens), P00519 [Q252H]; settings: Compound concentration 1000.0 nM
[19] = target: Muscarinic acetylcholine receptor M4 (Homo sapiens) (UniProt P08173); settings: Compound concentration 10.0 uM
[20] = target: Serine/threonine-protein kinase WNK1 (Homo sapiens) (UniProt Q9H4A3); settings: Compound concentration 1000.0 nM
[21] = target: Receptor tyrosine-protein kinase erbB-4 (Homo sapiens) (UniProt Q15303); settings: Compound concentration 1000.0 nM
[22] = system: eIF-2-alpha kinase GCN2 (Homo sapiens), Q9P2K8 [S808G]; settings: Compound concentration 1000.0 nM
[23] = target: Tyrosine-protein kinase Tec (Homo sapiens) (UniProt P42680); settings: Compound concentration 1000.0 nM
Tyrosine-protein kinase Tec (Homo sapiens), sequence (P42680 whole entry): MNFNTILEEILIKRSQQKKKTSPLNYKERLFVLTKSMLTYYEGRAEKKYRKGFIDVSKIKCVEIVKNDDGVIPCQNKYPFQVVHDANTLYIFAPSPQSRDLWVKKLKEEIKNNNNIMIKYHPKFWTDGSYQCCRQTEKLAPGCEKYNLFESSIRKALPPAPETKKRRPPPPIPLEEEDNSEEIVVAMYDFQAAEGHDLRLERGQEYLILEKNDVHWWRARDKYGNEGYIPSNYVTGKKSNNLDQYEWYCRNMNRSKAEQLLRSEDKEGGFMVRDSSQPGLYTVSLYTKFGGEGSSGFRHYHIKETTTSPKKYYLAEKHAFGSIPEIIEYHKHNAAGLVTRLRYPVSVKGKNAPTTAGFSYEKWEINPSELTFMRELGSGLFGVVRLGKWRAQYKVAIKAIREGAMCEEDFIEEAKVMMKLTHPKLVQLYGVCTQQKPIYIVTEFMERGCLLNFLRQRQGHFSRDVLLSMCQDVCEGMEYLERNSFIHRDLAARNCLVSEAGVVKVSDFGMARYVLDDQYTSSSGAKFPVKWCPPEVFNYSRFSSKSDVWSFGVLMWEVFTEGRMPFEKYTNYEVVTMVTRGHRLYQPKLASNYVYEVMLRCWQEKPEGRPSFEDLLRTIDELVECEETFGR

[24] = target: Mitogen-activated protein kinase 12 (Homo sapiens) (UniProt P53778); settings: Compound concentration 1000.0 nM
[25] = target: Casein kinase II subunit alpha' (Homo sapiens) (UniProt P19784); settings: Compound concentration 1000.0 nM
[26] = target: 5-hydroxytryptamine receptor 1E (Homo sapiens) (UniProt P28566); settings: Compound concentration 10.0 uM
[27] = target: Protein-tyrosine kinase 2-beta (Homo sapiens) (UniProt Q14289); settings: Compound concentration 1000.0 nM
Protein-tyrosine kinase 2-beta (Homo sapiens), sequence (Q14289 whole entry, looked up): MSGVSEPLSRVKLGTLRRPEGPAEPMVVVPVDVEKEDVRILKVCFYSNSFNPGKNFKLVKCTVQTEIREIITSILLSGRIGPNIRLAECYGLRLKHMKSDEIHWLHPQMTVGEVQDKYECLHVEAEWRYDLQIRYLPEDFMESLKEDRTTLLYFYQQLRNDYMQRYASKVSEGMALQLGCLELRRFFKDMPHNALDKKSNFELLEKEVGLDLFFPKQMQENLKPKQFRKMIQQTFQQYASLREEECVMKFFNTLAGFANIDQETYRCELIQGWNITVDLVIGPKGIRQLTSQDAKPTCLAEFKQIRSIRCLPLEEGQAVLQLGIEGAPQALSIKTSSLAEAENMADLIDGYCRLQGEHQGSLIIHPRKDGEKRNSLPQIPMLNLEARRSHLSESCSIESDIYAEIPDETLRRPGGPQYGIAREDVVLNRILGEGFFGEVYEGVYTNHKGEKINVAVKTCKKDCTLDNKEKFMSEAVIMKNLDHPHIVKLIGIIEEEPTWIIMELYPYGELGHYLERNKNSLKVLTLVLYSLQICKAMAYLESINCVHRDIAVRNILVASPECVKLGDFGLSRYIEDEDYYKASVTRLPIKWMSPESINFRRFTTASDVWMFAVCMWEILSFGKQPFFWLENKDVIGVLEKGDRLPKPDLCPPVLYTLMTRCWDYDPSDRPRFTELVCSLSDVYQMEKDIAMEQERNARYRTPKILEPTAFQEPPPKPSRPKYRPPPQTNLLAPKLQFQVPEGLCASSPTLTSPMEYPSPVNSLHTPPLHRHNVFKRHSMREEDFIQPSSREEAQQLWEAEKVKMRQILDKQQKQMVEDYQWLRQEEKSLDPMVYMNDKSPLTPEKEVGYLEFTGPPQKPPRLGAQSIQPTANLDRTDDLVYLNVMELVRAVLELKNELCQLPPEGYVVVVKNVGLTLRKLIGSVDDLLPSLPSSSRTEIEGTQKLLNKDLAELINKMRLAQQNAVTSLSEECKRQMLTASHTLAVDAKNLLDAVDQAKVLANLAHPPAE

[28] = target: Aurora kinase A (Homo sapiens) (UniProt O14965); settings: Compound concentration 1000.0 nM
[29] = target: Cyclin-dependent kinase-like 3 (Homo sapiens) (UniProt Q8IVW4); settings: Compound concentration 1000.0 nM
[30] = target: Dual specificity mitogen-activated protein kinase kinase 5 (Homo sapiens) (UniProt Q13163); settings: Compound concentration 1000.0 nM
[31] = target: cGMP-dependent protein kinase 2 (Homo sapiens) (UniProt Q13237); settings: Compound concentration 1000.0 nM
[32] = target: Dual specificity tyrosine-phosphorylation-regulated kinase 1A (Homo sapiens) (UniProt Q13627); settings: Compound concentration 1000.0 nM
[33] = target: Dual specificity mitogen-activated protein kinase kinase 2 (Homo sapiens) (UniProt P36507); settings: Compound concentration 1000.0 nM
Dual specificity mitogen-activated protein kinase kinase 2 (Homo sapiens), sequence (P36507 whole entry): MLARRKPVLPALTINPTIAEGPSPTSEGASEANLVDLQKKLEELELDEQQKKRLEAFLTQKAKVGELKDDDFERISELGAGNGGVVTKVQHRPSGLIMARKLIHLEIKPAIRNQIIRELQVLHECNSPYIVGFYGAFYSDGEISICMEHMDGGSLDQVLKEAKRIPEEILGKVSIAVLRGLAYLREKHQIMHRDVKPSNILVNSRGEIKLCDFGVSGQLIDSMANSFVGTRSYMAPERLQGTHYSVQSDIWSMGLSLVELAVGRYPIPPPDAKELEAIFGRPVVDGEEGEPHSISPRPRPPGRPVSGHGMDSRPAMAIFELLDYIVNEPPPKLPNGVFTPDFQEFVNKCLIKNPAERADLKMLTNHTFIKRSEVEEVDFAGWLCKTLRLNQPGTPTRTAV

[34] = system: Epidermal growth factor receptor (Homo sapiens), P00533 [UNDEFINED MUTATION]; settings: Compound concentration 1000.0 nM
Epidermal growth factor receptor (Homo sapiens), P00533 [UNDEFINED MUTATION], sequence (P00533 whole entry, looked up, change not shown): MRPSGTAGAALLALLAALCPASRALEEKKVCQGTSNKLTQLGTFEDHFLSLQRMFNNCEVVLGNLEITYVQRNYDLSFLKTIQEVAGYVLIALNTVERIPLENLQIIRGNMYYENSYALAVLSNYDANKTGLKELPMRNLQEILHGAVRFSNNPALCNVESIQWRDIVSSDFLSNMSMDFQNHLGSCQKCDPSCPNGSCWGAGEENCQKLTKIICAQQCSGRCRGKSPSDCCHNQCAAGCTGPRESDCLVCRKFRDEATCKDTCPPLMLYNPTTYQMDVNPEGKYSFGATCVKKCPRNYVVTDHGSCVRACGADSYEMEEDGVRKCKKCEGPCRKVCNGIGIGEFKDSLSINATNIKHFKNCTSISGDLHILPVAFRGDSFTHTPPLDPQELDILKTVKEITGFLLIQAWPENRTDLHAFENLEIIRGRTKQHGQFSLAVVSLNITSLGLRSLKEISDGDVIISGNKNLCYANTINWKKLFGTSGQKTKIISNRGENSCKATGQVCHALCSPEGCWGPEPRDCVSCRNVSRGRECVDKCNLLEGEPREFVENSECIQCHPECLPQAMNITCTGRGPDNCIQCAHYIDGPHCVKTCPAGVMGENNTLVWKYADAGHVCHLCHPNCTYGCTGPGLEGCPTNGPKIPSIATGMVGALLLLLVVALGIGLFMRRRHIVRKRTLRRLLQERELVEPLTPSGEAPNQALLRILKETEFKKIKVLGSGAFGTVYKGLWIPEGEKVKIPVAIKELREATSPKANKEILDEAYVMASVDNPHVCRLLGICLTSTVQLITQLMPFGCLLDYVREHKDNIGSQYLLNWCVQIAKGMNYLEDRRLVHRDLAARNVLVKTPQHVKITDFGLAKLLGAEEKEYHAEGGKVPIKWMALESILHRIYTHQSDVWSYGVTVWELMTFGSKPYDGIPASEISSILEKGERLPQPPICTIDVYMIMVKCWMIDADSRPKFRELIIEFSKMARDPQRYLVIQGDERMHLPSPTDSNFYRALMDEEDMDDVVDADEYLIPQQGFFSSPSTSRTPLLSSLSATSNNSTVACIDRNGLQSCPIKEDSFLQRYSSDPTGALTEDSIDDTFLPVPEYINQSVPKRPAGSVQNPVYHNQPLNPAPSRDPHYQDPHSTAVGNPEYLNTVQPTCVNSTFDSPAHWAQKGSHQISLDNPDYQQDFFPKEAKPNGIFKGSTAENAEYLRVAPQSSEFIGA

[35] = target: MAP kinase-interacting serine/threonine-protein kinase 1 (Homo sapiens) (UniProt Q9BUB5); settings: Compound concentration 1000.0 nM
[36] = target: Alpha-1A adrenergic receptor (Homo sapiens) (UniProt P35348); settings: Compound concentration 10.0 uM
[37] = system: Phosphatidylinositol 4,5-bisphosphate 3-kinase catalytic subunit alpha isoform (Homo sapiens), P42336 [E545K]; settings: Compound concentration 1000.0 nM
Phosphatidylinositol 4,5-bisphosphate 3-kinase catalytic subunit alpha isoform (Homo sapiens), P42336 [E545K], sequence (P42336 whole entry E545K, canonical isoform): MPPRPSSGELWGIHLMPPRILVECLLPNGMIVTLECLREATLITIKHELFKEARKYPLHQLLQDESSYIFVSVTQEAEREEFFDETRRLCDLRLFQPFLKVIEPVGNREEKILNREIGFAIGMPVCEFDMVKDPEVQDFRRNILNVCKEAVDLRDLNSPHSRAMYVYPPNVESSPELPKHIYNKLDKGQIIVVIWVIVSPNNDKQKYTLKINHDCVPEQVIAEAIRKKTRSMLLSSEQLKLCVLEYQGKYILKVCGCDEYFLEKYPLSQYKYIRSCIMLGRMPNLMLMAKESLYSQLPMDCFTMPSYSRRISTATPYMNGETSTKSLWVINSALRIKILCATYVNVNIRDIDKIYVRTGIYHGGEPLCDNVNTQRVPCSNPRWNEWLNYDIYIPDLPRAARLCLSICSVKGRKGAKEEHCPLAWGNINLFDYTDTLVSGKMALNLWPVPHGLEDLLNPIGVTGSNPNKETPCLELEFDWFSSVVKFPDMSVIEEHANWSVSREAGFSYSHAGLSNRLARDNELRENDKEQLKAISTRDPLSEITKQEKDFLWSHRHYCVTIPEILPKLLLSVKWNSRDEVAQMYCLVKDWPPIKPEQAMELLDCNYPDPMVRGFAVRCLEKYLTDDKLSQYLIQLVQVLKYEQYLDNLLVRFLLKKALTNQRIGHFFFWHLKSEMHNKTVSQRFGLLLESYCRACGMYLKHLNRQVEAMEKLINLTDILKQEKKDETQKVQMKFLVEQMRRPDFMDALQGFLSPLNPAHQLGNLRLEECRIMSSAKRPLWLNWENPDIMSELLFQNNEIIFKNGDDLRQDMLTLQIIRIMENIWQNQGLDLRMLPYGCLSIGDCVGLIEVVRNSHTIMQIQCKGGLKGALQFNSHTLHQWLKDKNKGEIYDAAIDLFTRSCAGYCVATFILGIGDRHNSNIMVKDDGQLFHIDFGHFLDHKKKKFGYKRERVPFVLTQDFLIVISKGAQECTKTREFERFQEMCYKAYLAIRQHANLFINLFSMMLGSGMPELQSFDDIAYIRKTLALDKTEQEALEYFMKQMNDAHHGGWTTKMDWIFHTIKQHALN

[38] = target: Serine/threonine-protein kinase Chk2 (Homo sapiens) (UniProt O96017); settings: Compound concentration 1000.0 nM
[39] = system: Hepatocyte growth factor receptor (Homo sapiens), P08581 [Y1235D]; settings: Compound concentration 1000.0 nM
[40] = target: Calcium/calmodulin-dependent protein kinase type 1G (Homo sapiens) (UniProt Q96NX5); settings: Compound concentration 1000.0 nM
[41] = system: Phosphatidylinositol 4,5-bisphosphate 3-kinase catalytic subunit alpha isoform (Homo sapiens), P42336 [C420R]; settings: Compound concentration 1000.0 nM
Phosphatidylinositol 4,5-bisphosphate 3-kinase catalytic subunit alpha isoform (Homo sapiens), P42336 [C420R], sequence (P42336 whole entry C420R, canonical isoform): as the sequence (P42336 whole entry E545K, canonical isoform) above, with C420R, K545E counted along it

[42] = target: Serine/threonine-protein kinase PAK 5 (Homo sapiens) (UniProt Q9P286); settings: Compound concentration 1000.0 nM
[43] = system: Epidermal growth factor receptor (Homo sapiens), P00533 [UNDEFINED MUTATION]; settings: Compound concentration 1000.0 nM; remark: listed apart in the source
[44] = target: Serine/threonine-protein kinase MARK2 (Homo sapiens) (UniProt Q7KZI7); settings: Compound concentration 1000.0 nM
[45] = system: Receptor-type tyrosine-protein kinase FLT3 (Homo sapiens), P36888 [R834Q]; settings: Compound concentration 1000.0 nM

C[C@H](NC(=O)c1cnc2n1[C@](C)(Cc1ccc(C#N)cc1)C(=O)N2c1cc(Cl)c(F)c(Cl)c1)C(=O)NC1(c2ccccn2)CC1 [BI 1950]
inactive: residual activity [1] 95% | residual activity [2] 100% | inhibition [3] 24.3% | residual activity [4] 100% | residual activity [5] 100% | inhibition [6] 9.67% | residual activity [7] 100% | residual activity [8] 78% | residual activity [9] 100% | residual activity [10] 100% | residual activity [11] 100% | residual activity [12] 100% | residual activity [13] 100% | residual activity [14] 100% | residual activity [15] 100% | residual activity [16] 100% | residual activity [17] 100% | residual activity [18] 100% | inhibition [19] 12.1% | residual activity [20] 100% | residual activity [21] 100% | residual activity [22] 100% | residual activity [23] 75% | residual activity [24] 100% | residual activity [25] 99% | inhibition [26] 17.7% | residual activity [27] 100% | residual activity [28] 100% | residual activity [29] 100% | residual activity [30] 100% | residual activity [31] 85% | residual activity [32] 100% | residual activity [33] 90% | residual activity [34] 100% | residual activity [35] 93% | inhibition [36] -8.89% | residual activity [37] 100% | residual activity [38] 100% | residual activity [39] 100% | residual activity [40] 100% | residual activity [41] 93% | residual activity [42] 100% | residual activity [43] 100% | residual activity [44] 100% | residual activity [45] 90%

C[C@@]1(Cc2ccc(C#N)cc2)C(=O)N(c2cc(Cl)cc(Cl)c2)c2ncc(C(=O)NC3(c4nc(C5CCC5)no4)CC3)n21 [BI 9446]
inactive: residual activity [1] 83% | residual activity [2] 100% | inhibition [3] 32.9% | residual activity [4] 100% | residual activity [5] 100% | inhibition [6] 12.6% | residual activity [7] 100% | residual activity [8] 89% | residual activity [9] 100% | residual activity [10] 100% | residual activity [11] 95% | residual activity [12] 100% | residual activity [13] 100% | residual activity [14] 100% | residual activity [15] 100% | residual activity [16] 100% | residual activity [17] 98% | residual activity [18] 100% | inhibition [19] 21.6% | residual activity [20] 99% | residual activity [21] 100% | residual activity [22] 100% | residual activity [23] 92% | residual activity [24] 100% | residual activity [25] 100% | inhibition [26] 31.5% | residual activity [27] 100% | residual activity [28] 92% | residual activity [29] 100% | residual activity [30] 100% | residual activity [31] 100% | residual activity [32] 99% | residual activity [33] 99% | residual activity [34] 100% | residual activity [35] 100% | inhibition [36] -1.65% | residual activity [37] 94% | residual activity [38] 100% | residual activity [39] 100% | residual activity [40] 100% | residual activity [41] 89% | residual activity [42] 100% | residual activity [43] 97% | residual activity [44] 85% | residual activity [45] 100%
